Reference: patent US20250361221A1, “SOLID STATE FORMS OF PALTUSOTINE AND PROCESS FOR PREPARATION THEREOF” (ASSIA CHEMICAL INDUSTRIES LTD., priority 2022, published 2025)

How the values were obtained:
Type in all cases: physicochemical
[1] = Stability to compression: pressure of 2 tons in a hydraulic press (XRPD); settings: 2 tons/1 minute
Description: (§1) X-ray diffraction was performed on X-Ray powder diffractometer: Bruker D8 Advance; CuKα radiation (λ=1.5418 Å); Lynx eye detector; laboratory temperature 22-25° C.; PMMA specimen holder ring with silicon low background. Prior to analysis, the samples were gently ground by means of mortar and pestle in order to obtain a fine powder. The ground sample was adjusted into a cavity of the sample holder and the surface of the sample was smoothed by means of a cover glass.
(§2) • Scan range: 2-40 degrees 2-theta; • Scan mode: continuous; • Step size: 0.05 degrees; • Time per step: 0.5 s; • Sample spin: 30 rpm; • Sample holder: PMMA specimen holder ring with silicon low background.
Samples of Paltusotine forms PL1 and PL11 were subjected to a pressure of 2 tons in a hydraulic press (Atlas® Autopress hydraulic press, set to 2 tons). XRPD analysis was performed on the samples after 1 minute.

[2] = Storage stability at different relative humidities and temperatures, 6 months (XRPD); settings: for XRPD analysis results: 6 months
Description: as §1, §2
Samples of Paltusotine form PL1 was subjected to conditions of different relative humidities at different temperatures. XRPD analysis was performed on the samples after 6 months.

[3] = Thermal stability: heating up to 100° C. for 30 minutes (XRPD); settings: Heating 100° C.
Description: as §1, §2
Samples of Paltusotine forms PL1 and PL11 were subjected to heating up to 100° C. for 30 minutes. XRPD analysis of the sample confirmed no change in the starting material (Table 4): […]

[4] = Grinding experiments: strong grinding and solvent drop grinding (XRPD); settings: 2 minutes
Description: as §1, §2
Samples of Paltusotine forms PL1 and PL11 were subjected to strong grinding, and to solvent drop grinding in water, ethanol and isopropanol. Grinding was carried out on the samples alone, or in the presence of ethanol or water. In these experiments, about 20 mg of the sample is placed in a mortar and ground with a pestle for 2 minutes. The solvent, when used, as added to the crystalline material before grinding, in a volume of 10 microlitres. XRPD analysis performed on each of the samples after the grinding experiment, confirmed no change in the starting material (Table 3): […]

N#Cc1cccc(-c2ccc3ncc(-c4cc(F)cc(F)c4)c(N4CCC(N)CC4)c3c2)c1O [Form PL1, Paltusotine]
Result (XRPD analysis) [1]: Stable | XRPD analysis results ([2]; 25° C., 60% RH): No change | time stable after exposure to high and low relative humidity at different temperatures ([2]; 25° C./60% RH and 40° C./75% RH): at least 6 months | XRPD analysis results ([2]; 40° C., 75% RH): No change | Result (XRPD analysis) [3]: Stable | XRPD analysis results ([4]; Solvent-drop grinding (ethanol), 10 microlitres): No change | XRPD analysis results ([4]; Solvent-drop grinding (isopropanol), 10 microlitres): No change | XRPD analysis results ([4]; Solvent-drop grinding (water), 10 microlitres): No change | XRPD analysis results ([4]; Strong grinding, mortar and pestle): No change
